Data published in ChEMBL document CHEMBL1147880, “beta-Alkylthio indolyl carbinols: potent nonsteroidal antiandrogens with oral efficacy in a prostate cancer model” (Bioorg Med Chem Lett, 2007).
The source made the active and inactive calls. No cut-off for these calls is given here.

Columns and labels:
Rattus norvegicus [1] = experiment: Reduction of prostate weight in orally dosed immature rat; assay type: functional, Prostate gland; design: Activity: scale not given: the % may be the effect or the level left
Rattus norvegicus [2] = experiment: Reduction of prostate weight in orally dosed mature rat; assay type: functional; details: Prostate gland, po, read-out: ID50 (the source's name)
[3] = Half life in mature rat; assay type: ADME, organism-based; details: in vivo
LNCaP = experiment: Inhibition of tumor growth in LNCaP cells xenografted mouse at 100 mg/kg, po after 51 days; assay type: functional, organism-based; design: dose 100 mg/kg; details: Homo sapiens
[4] = Oral bioavailability in mature rat; assay type: ADME, organism-based; details: in vivo
Rattus norvegicus [5] = experiment: Reduction of prostate weight in orally dosed castrated mature rat; assay type: functional, organism-based; details: Prostate gland
[6] = biological target: T1, Androgen receptor (Homo sapiens) (UniProt P10275); experiment: Binding affinity to AR expressed in COS cells by whole-cell binding assay; assay type: cell-based
T1 sequence (whole entry): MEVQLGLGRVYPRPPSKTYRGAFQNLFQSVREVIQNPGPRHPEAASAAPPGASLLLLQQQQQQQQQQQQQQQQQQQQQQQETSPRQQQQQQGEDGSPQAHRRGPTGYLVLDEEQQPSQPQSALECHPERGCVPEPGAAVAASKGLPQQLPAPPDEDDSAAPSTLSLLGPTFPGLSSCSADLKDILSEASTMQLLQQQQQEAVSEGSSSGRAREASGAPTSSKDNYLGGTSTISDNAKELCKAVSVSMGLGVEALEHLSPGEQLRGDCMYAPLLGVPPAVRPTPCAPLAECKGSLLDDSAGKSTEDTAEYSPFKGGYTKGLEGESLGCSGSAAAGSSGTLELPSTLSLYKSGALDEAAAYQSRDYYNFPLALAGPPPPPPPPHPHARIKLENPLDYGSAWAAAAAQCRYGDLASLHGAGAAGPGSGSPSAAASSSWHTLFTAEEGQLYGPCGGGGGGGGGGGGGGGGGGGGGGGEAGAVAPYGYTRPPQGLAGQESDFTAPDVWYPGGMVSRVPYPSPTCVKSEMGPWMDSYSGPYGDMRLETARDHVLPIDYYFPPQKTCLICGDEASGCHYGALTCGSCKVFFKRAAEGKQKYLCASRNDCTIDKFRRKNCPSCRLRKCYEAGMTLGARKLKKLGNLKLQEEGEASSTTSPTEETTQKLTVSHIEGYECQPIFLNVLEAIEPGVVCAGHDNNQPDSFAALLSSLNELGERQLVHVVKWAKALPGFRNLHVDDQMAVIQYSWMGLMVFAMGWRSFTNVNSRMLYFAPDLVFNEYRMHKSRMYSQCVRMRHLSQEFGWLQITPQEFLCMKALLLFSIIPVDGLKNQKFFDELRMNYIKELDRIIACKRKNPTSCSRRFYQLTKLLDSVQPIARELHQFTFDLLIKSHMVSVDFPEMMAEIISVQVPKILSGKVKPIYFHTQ

| Compound | Activity (Rattus norvegicus [1]) | further results |
| --- | --- | --- |
| CCCCSC[C@@](C)(O)c1cc2cc([N+](=O)[O-])c(C(F)(F)F)cc2[nH]1 | 40% |  |
| CC(C)SC[C@@](C)(O)c1cc2cc([N+](=O)[O-])c(C(F)(F)F)cc2[nH]1 | 42% |  |
| CSC[C@@](C)(O)c1cc2cc([N+](=O)[O-])c(C(F)(F)F)cc2[nH]1 | 66% |  |
| CCSC[C@](C)(O)c1cc2cc(N)c(C(F)(F)F)cc2[nH]1 |  | Activity (Rattus norvegicus [1]; Prostate gland): inactive |
| CCSC[C@](C)(O)c1cc2cc(Cl)c(Cl)cc2[nH]1 |  | Activity (Rattus norvegicus [1]; Prostate gland): inactive |
| CCSC[C@](C)(O)c1cc2cc(C)c(C(F)(F)F)cc2[nH]1 | 22% |  |
| CCSC[C@](C)(O)c1cc2cc(Cl)ccc2[nH]1 |  | Activity (Rattus norvegicus [1]; Prostate gland): inactive |
| CCSC[C@](C)(O)c1cc2cc(C#N)ncc2[nH]1 |  | Activity (Rattus norvegicus [1]; Prostate gland): inactive |
| CCSCC(C)(O)Cc1cc2cc([N+](=O)[O-])c(C(F)(F)F)cc2[nH]1 (configuration not stated) |  | Activity (Rattus norvegicus [1]; Prostate gland): inactive |
| C[C@@](O)(CSCC(F)(F)F)c1cc2cc([N+](=O)[O-])c(C(F)(F)F)cc2[nH]1 | 46% |  |
| CCSC[C@](C)(O)c1cc2cc(C#N)c(C(F)(F)F)cc2n1CC#N |  | Activity (Rattus norvegicus [1]; Prostate gland): inactive |
| CCSC[C@](C)(O)c1cc2ccccc2[nH]1 | 26% |  |
| CCSC[C@@](C)(OC)c1cc2cc([N+](=O)[O-])c(C(F)(F)F)cc2[nH]1 | 76% |  |
| CSCC[C@@](C)(O)c1cc2cc([N+](=O)[O-])c(C(F)(F)F)cc2[nH]1 | 44% |  |
| CCSC[C@](C)(O)c1cc2cc(F)c(C(F)(F)F)cc2[nH]1 | 58% |  |
| CCSC[C@@](C)(O)c1cc2cc(C#N)c(C(F)(F)F)cc2[nH]1 |  | Activity (Rattus norvegicus [1]; Prostate gland): inactive |
| CC(O)(CS(=O)(=O)c1ccc(F)cc1)C(=O)Nc1ccc(C#N)c(C(F)(F)F)c1 (configuration not stated) [BICALUTAMIDE] | 75% | ED50 (Rattus norvegicus [2]): > 44 mg/kg; ID50 (Rattus norvegicus [1]): 0.44 mg/day |
| CCSC[C@](C)(O)c1cc2cc([N+](=O)[O-])c(C(F)(F)F)cc2o1 | 38% |  |
| CCS(=O)(=O)C[C@](C)(O)c1[nH]c2cc(C(F)(F)F)c(C#N)cc2c1C |  | ED50 (Rattus norvegicus [2]): > 30 mg/kg; ID50 (Rattus norvegicus [1]): 2.4 mg/day; half-life [3]: 2 h |
| CCSC[C@](C)(O)c1cc2cc(C#N)c(C(F)(F)F)cc2n1CC | 55% |  |
| C[C@@](O)(CSCc1cccs1)c1cc2cc([N+](=O)[O-])c(C(F)(F)F)cc2[nH]1 | 28% |  |
| CCSC[C@](C)(O)c1cc2cc(C#N)c(C(F)(F)F)cc2n1COC | 37% |  |
| CCSC[C@](C)(O)c1cc2cc(Cl)c(C(F)(F)F)cc2[nH]1 | 54% |  |
| CCSC[C@@](C)(O)c1cc2cc([N+](=O)[O-])c(C(F)(F)F)cc2[nH]1 | 75% |  |

| Compound | Activity (Rattus norvegicus [1]) | further results |
| --- | --- | --- |
| CCSC[C@](C)(O)c1cc2cc(C#N)c(C(F)(F)F)cc2n1C | 43% |  |
| CCc1c([C@@](C)(O)CS(=O)(=O)CC)[nH]c2cc(C(F)(F)F)c(C#N)cc12 |  | ID50 (Rattus norvegicus [1]): 1.4 mg/day; half-life [3]: 0.9 h |
| CCSC[C@](C)(O)c1cc2cc(C#N)c(C)cc2[nH]1 |  | Activity (Rattus norvegicus [1]; Prostate gland): inactive |
| CCSCC(C)(O)c1cc2cc([N+](=O)[O-])cc(C(F)(F)F)c2[nH]1 (configuration not stated) | 66% |  |
| C[C@@](O)(CSCc1ccccc1)c1cc2cc([N+](=O)[O-])c(C(F)(F)F)cc2[nH]1 | 54% |  |
| CCSCC(O)c1cc2cc([N+](=O)[O-])c(C(F)(F)F)cc2[nH]1 (configuration not stated) | 30% |  |
| CCSC[C@](C)(O)c1cc2cc(C#N)c(Cl)cc2[nH]1 | 83% |  |
| CCSC[C@](C)(O)c1cc2cc(C#N)c(C(F)(F)F)cc2n1CC(F)(F)F | 53% |  |
| O=[N+]([O-])c1cc2cc(C3(O)CCSC3)[nH]c2cc1C(F)(F)F (configuration not stated) | 49% |  |
| CCSCC(O)(CSCC)c1cc2cc([N+](=O)[O-])c(C(F)(F)F)cc2[nH]1 | 32% |  |
| CCSC[C@](C)(O)c1cc2cc(C#N)c(C(F)(F)F)cc2[nH]1 [listing 1 of 2 here] | 100% | ED50 (Rattus norvegicus [2]): 22 mg/kg; ID50 (Rattus norvegicus [1]): 0.44 mg/day |
| CCSC[C@](C)(O)c1[nH]c2cc(C(F)(F)F)c(C#N)cc2c1C | 61% | ED50 (Rattus norvegicus [2]): > 60 mg/kg |
| CC[S+]([O-])C[C@](C)(O)c1cc2cc(C#N)c(C(F)(F)F)cc2[nH]1 (some centres not stated) | 62% |  |
| CCSC[C@](C)(O)c1cc2cc(C#N)ccc2[nH]1 |  | Activity (Rattus norvegicus [1]; Prostate gland): inactive |
| CCSC[C@](C)(O)c1cc2cc([N+](=O)[O-])ccc2[nH]1 | 34% |  |
| CC(C)CSC[C@@](C)(O)c1cc2cc([N+](=O)[O-])c(C(F)(F)F)cc2[nH]1 | 75% |  |
| CCCSC[C@@](C)(O)c1cc2cc([N+](=O)[O-])c(C(F)(F)F)cc2[nH]1 | 40% |  |
| C[C@@](O)(CSCc1ccco1)c1cc2cc([N+](=O)[O-])c(C(F)(F)F)cc2[nH]1 | 46% |  |
| CCS(=O)(=O)C[C@](C)(O)c1cc2cc(C#N)c(C(F)(F)F)cc2[nH]1 | 100% | ED50 (Rattus norvegicus [2]): 22 mg/kg; Activity (LNCaP): Active; bioavailability [4]: 68%; ID50 (Rattus norvegicus [1]): 0.89 mg/day; half-life [3]: 52 h; Activity (Rattus norvegicus [5]): inactive; Activity [6]: Active |
| CCSC[C@](C)(O)c1cc2cc(C#N)c(OC)cc2[nH]1 |  | Activity (Rattus norvegicus [1]; Prostate gland): inactive |
| CCSC[C@](O)(CC)c1cc2cc([N+](=O)[O-])c(C(F)(F)F)cc2[nH]1 | 73% |  |
| CCSC[C@](C)(O)c1cc2cc(F)c(Cl)cc2[nH]1 | 60% |  |
| CCSC[C@](C)(O)c1cc2cc(C#N)c(C(F)(F)F)cc2[nH]1 [listing 2 of 2 here] | 100% |  |
